ChEMBL document CHEMBL6078723, “Novel steroidal β-carboline derivatives as promising antibacterial candidates against methicillin-resistant Staphylococcus aureus” (Eur J Med Chem, 2025)

Legend:
Format in all cases: functional
Staphylococcus aureus [1] = assay: Antibacterial activity against methicillin-resistant Staphylococcus aureus ATCC 43300
Staphylococcus aureus [2] = assay: Antibacterial activity against methicillin-resistant Staphylococcus aureus ATCC 33591
Staphylococcus aureus [3] = assay: Antibacterial activity against methicillin-resistant Staphylococcus aureus CGMCC1.12409
Staphylococcus aureus [4] = assay: Antibacterial activity against Staphylococcus aureus CGMCC1.8721

Compound	MIC (Staphylococcus aureus [1]) [µg/mL]	MIC (Staphylococcus aureus [2]) [µg/mL]	MIC (Staphylococcus aureus [3]) [µg/mL]	MIC (Staphylococcus aureus [4]) [µg/mL]
CC[n+]1ccc2c([nH]c3ccc(OC)cc32)c1CC[C@H](C)[C@H]1CC[C@H]2[C@@H]3CC[C@@H]4C[C@H](O)CC[C@]4(C)[C@H]3CC[C@]12C.[Br-]	16	32	16	16
COc1ccc2[nH]c3c(CC[C@H](C)[C@H]4CC[C@H]5[C@@H]6[C@H](O)C[C@@H]7C[C@H](O)CC[C@]7(C)[C@H]6CC[C@]45C)[n+](Cc4ccc(OC(F)(F)F)cc4)ccc3c2c1.[Br-]	16	16	16	16
CCCC[n+]1ccc2c([nH]c3ccc(OC)cc32)c1CC[C@H](C)[C@H]1CC[C@H]2[C@@H]3[C@H](O)C[C@@H]4C[C@H](O)CC[C@]4(C)[C@H]3C[C@H](O)[C@]12C.[Br-]	16	16	16	16
COc1ccc2[nH]c3c(CC[C@H](C)[C@H]4CC[C@H]5[C@@H]6[C@H](O)C[C@@H]7C[C@H](O)CC[C@]7(C)[C@H]6CC[C@]45C)[n+](Cc4ccc(Br)cc4)ccc3c2c1.[Br-]	16	32	16	16
COc1ccc2[nH]c3c(CC[C@H](C)[C@H]4CC[C@H]5[C@@H]6[C@H](O)C[C@@H]7C[C@H](O)CC[C@]7(C)[C@H]6CC[C@]45C)[n+](Cc4ccc(F)cc4)ccc3c2c1.[Br-]	4	8	4	4
CCCCC[n+]1ccc2c([nH]c3ccc(OC)cc32)c1CC[C@H](C)[C@H]1CC[C@H]2[C@@H]3[C@H](O)C[C@@H]4C[C@H](O)CC[C@]4(C)[C@H]3CC[C@]12C.[Br-]	16	16	16	8
COc1ccc2[nH]c3c(CC[C@H](C)[C@H]4CC[C@H]5[C@@H]6[C@H](O)C[C@@H]7C[C@H](O)CC[C@]7(C)[C@H]6CC[C@]45C)[n+](Cc4cccc(F)c4)ccc3c2c1.[Br-]	8	8	8	4
CCC[n+]1ccc2c([nH]c3ccc(OC)cc32)c1CC[C@H](C)[C@H]1CC[C@H]2[C@@H]3[C@H](O)C[C@@H]4C[C@H](O)CC[C@]4(C)[C@H]3C[C@H](O)[C@]12C.[Br-]	16	16	16	16
COc1ccc(OC)c(C[n+]2ccc3c([nH]c4ccc(OC)cc43)c2CC[C@H](C)[C@H]2CC[C@H]3[C@@H]4[C@H](O)C[C@@H]5C[C@H](O)CC[C@]5(C)[C@H]4CC[C@]23C)c1.[Br-]	8	8	8	4
COc1ccc2[nH]c3c(CC[C@H](C)[C@H]4CC[C@H]5[C@@H]6[C@H](O)C[C@@H]7C[C@H](O)CC[C@]7(C)[C@H]6CC[C@]45C)[n+](Cc4ccccc4F)ccc3c2c1.[Br-]	4	8	8	4
COc1ccc2[nH]c3c(CC[C@H](C)[C@H]4CC[C@H]5[C@@H]6[C@H](O)C[C@@H]7C[C@H](O)CC[C@]7(C)[C@H]6CC[C@]45C)[n+](Cc4cccc(Cl)c4)ccc3c2c1.[Br-]	16	32	16	16
COc1ccc2[nH]c3c(CC[C@H](C)[C@H]4CC[C@H]5[C@@H]6[C@H](O)C[C@@H]7C[C@H](O)CC[C@]7(C)[C@H]6CC[C@]45C)[n+](Cc4ccccc4C)ccc3c2c1.[Br-]	16	16	16	16
